Reference: patent US20090311716A1, “METHODS TO TREAT OR PREVENT HORMONE-RESISTANT PROSTATE CANCER USING siRNA [sequence] FOR PROTOCADHERIN-PC, OR OTHER INHIBITORS OF PROTOCADHERIN-PC EXPRESSION OR ACTIVITY” (THE TRUSTEES OF COLUMBIA UNIVERSITY IN THE CITY OF NEW YORK, priority 2005, published 2009)
“Also recorded” adds a separate entry of the source.

Key:
Type in all cases: cell-based, human
[1] = test system: Tcf-sensitive reporter pTOP (wnt signaling); assay: Tcf-sensitive pTOP luciferase reporter assay (wnt signaling) in LNCaP cells; details: 7 days in androgen-free medium
Description: FIGS. 5A-5C. siRNAs against PCDH-PC suppress PCDH-PC expression, TCF-mediated transcription and NE transdifferentiation in LNCaP cells grown in androgen-free medium. FIG. 5A. RNAs extracted from LNCaP cells grown in normal medium (Control) or in androgen-free medium (CS-FBS, None) were compared toRNAs from LNCaP cells grown in androgen-free medium transfected with siRNAs against PCDH-PC (181, 190 and 208) or siRNA against lamin by RT-PCR using primers specific for PCDH-PC (Top Panel) or β-actin (Bottom Panel). PCR reaction products were electrophoresed on agarose gels and were visualized after ethidium bromide staining under UV light. FIG. 5B. LNCaP cells cultured in normal medium (Control) were compared to LNCaP cells grown in androgen-free medium for 7 days without or with transfection with siRNA 181 against PCDH-PC or siRNA against lamin for expression of luciferase from the TCF-sensitive reporter pTOP for normalized luciferase activity. FIG. 5C. […]
Expression Vectors, Transfection Protocols and Luciferase/β-Glactosidase Assays. […] Luciferase activity in cell extracts was measured using the Luciferase Assay System of Promega, Inc. (Madison, Wis.). β-galactosidase activity was also measured in the same cell extracts using the β-galactosidase Enzyme Assay System of Promega, Inc. All experiments involving luciferase reporter vectors were done in triplicate for each point.

[2] = test system: Akt; assay: Western blot of phosphorylated Akt / MDM2 in LNCaP cells in androgen-free medium; details: androgen-free medium 5 days then transfected 2 days
Description: FIG. 15. Proteins were extracted from untransfected LNCaP cells maintained in androgen free medium for 7 days (CS-FBS Control) or from 7-day androgen-free LNCaP cells that were transfected for 48 hrs with β-catenin siRNA (CS-FBS+beta-Cat siRNA) or dominant negative Tcf (CS-FBS+DN-Tcf) or PCDH-PC siRNA 181 (CS-FBS+PCDH-PC siRNA) or lamin siRNA (CS-FBS+lamin siRNA). Equal aliquots of protein were electrophoresed on a polyacrylamide gel and then blotted onto a PVDF filter to produce a Western blot. The same blot was probed with an antibody against Akt protein (top panel) or against phosphorylated Akt (ser 473) (second panel) or with an antibody against MDM2 protein (third panel) or phosphorylated MDM2 protein (bottom panel). […] The blockade of Akt phosphorylation by PCDH-PC siRNA could be involved in the process through which this molecule induces the death of prostate cancer cells under androgen-free conditions. […]
Preparation of cell extracts and western blots. Cells were harvested and protein extracts prepared, quantified and used to prepare Western blots as previously described (Example 1; Yang et al., 2005). […] Recombinant Wnt-1 protein (HA-tagged) was detected with anti-HA antibody (Clontech Inc., Mountain View, Calif.). Antibody binding to the Western blot was detected as previously described (Yang et al., 2005). […]

[3] = test system: LNCaP cells; assay: Flow cytometry of propidium iodide stained cells, sub-G0 peak (cell death); details: for dead cells (sub-G0 peak): LNCaP in androgen-free medium 5 days, then siRNA transfection a further 48 hrs
Experimental: FIG. 18. Selective killing of LNCaP cells grown in androgen-free medium by PCDH-PC siRNA. LNCaP cells grown in normal medium or in androgen-free medium (phenol red-free RPMI supplemented with CS-FBS) for 5 days were transfected with PCDH-PC siRNA (#181) or with lamin siRNA, as indicated for a further 48 hrs. Cells were collected, fixed and stained with propidium iodide and were analyzed by flow cytometry. Bars represent the % population of cells in the sub-G0 peak considered to be apoptotic. The bars are averages based on two measurements under each condition. No siRNAs were untransfected cells.
siRNAs and Transfection of Cultured Human Prostate Cancer Cells. Commercial siRNAs targeting human β-catenin and lamin A were purchased from Dharmacon, Inc. (Chicago, Ill.). Three different siRNAs targeting PCDH-PC were designed using the siRNA Target Finder software program available through Ambion, Inc. (Austin, Tex.). The anti-PCDH-PC siRNAs targeted sequences at position 3043-3062 (#181; SEQ ID NO:4; FIG. 29), 3098-3117 (#190; SEQ ID NO:6; FIG. 31) or 3345-3364 (#208; SEQ ID NO:7; FIG. 32) on the PCDH-PC mRNA. The 21 bp siRNAs were constructed using the 19 bp core sequences described above with 2 nucleotide UU overhangs and these siRNAs were produced and provided by Ambion, Inc. siRNAs were transfected or co-transfected (with other expression vectors as described) into LNCaP cells at 100 nM final concentrations using Lipofectamine 2000 transfection reagent (Invitrogen Life Technologies, Inc.) in serum-free medium as instructed by the manufacturer. 48 hrs after transfection, cells were harvested and extracted for protein or RNA as described below.

[4] = test system: PCDH-PC; assay: Western blot of myc-tagged PCDH-PC in LNCaP cells co-transfected with pPCDH-PC-myc and siRNA; details: siRNA 100 nM co-transfected with pPCDH-PC-myc, 48 hrs; listed as #181
Description: FIGS. 4A-4B. siRNAs against PCDH-PC suppress PCDH-PC expression and NE transdifferentiation of LNCaP cells. FIG. 4A. LNCaP cells were transfected with the pPCDH-PC-myc expression vector and were co-transfected with siRNA against human lamin or siRNAs 181, 190 or 208 designed to suppress PCDH-PC expression. A Western blot made against protein extracts from these cells were probed with anti-myc (Top Panel) to identify expression of the 110 kd PCDH myc-tagged protein, anti-β-actin (Middle Panel) or anti-human E-cadherin (Bottom Panel). FIG. 4B. A repeated experiment that includes control LNCaP cells (no transfection) or pCMV-PCDH-myc transfected LNCaP cells co-transfected with siRNAs against lamin or against PCDH-PC (181, 190 or 208). The Western blot was probed for NSE expression (Top Panel) or for β-actin expression (Bottom Panel).
Expression Vectors, Transfection Protocols and Luciferase/β-Glactosidase Assays. PCDH-PC cDNA was inserted into the mammalian expression vectors pcDNA3 (Invitrogen Life Technologies, Inc., Carlsbad, Calif.) or into pCMV-myc (BD Biosciences, Clontech, Inc., Palo Alto, Calif.) so that the PCDH-PC product generated from this vector (pPCDH-PC-myc) has a C-terminal myc tag. An expression vector containing cDNA encoding a mutated (stabilized) form of human β-catenin (Tetsu and McCormick, 1999) was used. A dominant-negative Tcf expression vector used was previously described (Chen et al., 2001). The Tcf-sensitive reporter vector, pTOP and a CMV-promoted β-galactosidase expression vector were obtained from Upstate Biotechnology, Inc. Transfections used for protein or RNA extractions were done in 35 cm^2 dishes with cells plated at 50% density 12-16 hrs prior. […] Luciferase activity in cell extracts was measured using the Luciferase Assay System of Promega, Inc. (Madison, Wis.). β-galactosidase activity was also measured in the same cell extracts using the β-galactosidase Enzyme Assay System of Promega, Inc. All experiments involving luciferase reporter vectors were done in triplicate for each point. […]

siRNA #181: 21 bp siRNA targeting PCDH-PC mRNA position 3043-3062, 19 bp core with UU overhangs (SEQ ID NO:4) (AAGCATTGAAGCACCAGTGAC; listed as DNA, further chemistry not given here)
induced luciferase expression from pTOP reporter (wnt signaling) [1]: completely suppressed
Akt phosphorylation (pAkt; and MDM2 phosphorylation) [2]: reduced
selectivity of cell death induction, androgen-free versus normal medium ([3]; LNCaP): specific to cells grown in androgen free medium, not in normal medium
dead cells (sub-G0 peak) ([3]; listed as #181): approximately 58%
dead cells (sub-G0 peak) ([3]; listed as PCDH-PC siRNA): 58%
dead cells (sub-G0 peak) ([3]; listed as siRNA against PCDH-PC): 58%
cell death relative to untransfected cells or cells transfected with lamin siRNA ([3]; LNCaP, androgen-free medium 7 days): greater than 4 ×
expression of myc-tagged PCDH-PC polypeptide [4]: suppressive effects; also recorded: most effective
